The source of these data is patent US8507464B2, “Phosphoramidate alkylator prodrugs” (Threshold Pharmaceuticals, Inc., priority 2005, dated 2013).

In experiment [1] the test system is NCI-H460 cells. Briefly: Antiproliferation assay - oxygen dependence. The experiment is classed as cell-based, human. From the text:
. […] The calculated IC50 values (μM) are tabulated in Table Y1 (H460 cells) or Table Y2 (HT29 cells) below.

Experiment [2] concerns NCI-H460 cells. Briefly: Antiproliferation assay (Alamar Blue), anoxia vs air. For orientation: Alamar Blue is a resazurin reagent that responds to reducing activity.
[3] abbreviates: Homo sapiens, NCI-H460, read-out: IC50 in H460 cells, 0.6% O2.
[4] abbreviates: Homo sapiens, NCI-H460; read-out: IC50 in H460 cells, N2.
The mark [5] stands for this setting: Homo sapiens, NCI-H460, 2 h, read-out: IC50 H460 Air, air, 2 h exposure.
The mark [6] stands for this setting: Homo sapiens, NCI-H460, 2 h, read-out: IC50 H460 Anoxia, anoxia, 2 h exposure.
Where [7] appears, read: Homo sapiens, NCI-H460; read-out: IC50 in H460 cells, Air.
Where [8] appears, read: Homo sapiens, NCI-H460, read-out: IC50 in H460 cells, Air.
[9] abbreviates: Homo sapiens, NCI-H460, read-out: IC50 in H460 cells, N2.

Structures are written as SMILES. Bounds are passed on as bounds.

Regarding `C[C@@H](CCl)NP(=O)(N[C@@H](C)CCl)OCc1cnc([N+](=O)[O-])n1C` [Compound 38], the IC50 in the experiment on NCI-H460 cells [1] (setting [3]) was 45 µM; in the experiment with NCI-H460 cells [1] (Homo sapiens, NCI-H460, read-out: IC50 in H460 cells, 1% O2) it was more than 100 µM; in the experiment with NCI-H460 cells [1] (setting [4]), 0.4 µM; with NCI-H460 cells [2] (setting [5]), more than 100 µM; with NCI-H460 cells [2] (setting [6]), 0.33 µM.
Consider `CC(C)[C@H](CCl)NP(=O)(N[C@@H](CCl)C(C)C)OCc1ccc([N+](=O)[O-])s1` [Compound 44], for which the IC50 in the experiment with NCI-H460 cells [1] (setting [3]) was 45 µM; in the experiment with NCI-H460 cells [1] (setting [7]) it was more than 100 µM; with NCI-H460 cells [2] (setting [5]), 100 µM; with NCI-H460 cells [2] (setting [6]), 3 µM.
For `CC(C)[C@@H](CCl)NP(=O)(N[C@H](CCl)C(C)C)OCc1ccc([N+](=O)[O-])o1` [Compound 46], in that order: 50 µM, 100 µM, more than 100 µM and 5 µM.
In the case of `CC(C)[C@@H](CCl)NP(=O)(N[C@H](CCl)C(C)C)OCc1ccc([N+](=O)[O-])s1` [Compound 47], the IC50 in the experiment with NCI-H460 cells [1] (setting [3]) is 60 µM; with NCI-H460 cells [1] (setting [7]), 100 µM; in the experiment on NCI-H460 cells [2] (setting [5]), more than 100 µM; in the experiment on NCI-H460 cells [2] (setting [6]), 4 µM.
Consider `Cn1c(COc2ccc(COP(=O)(NCCBr)NCCBr)cc2F)cnc1[N+](=O)[O-]` [Compound 50], for which the IC50 is 3 µM in the experiment on NCI-H460 cells [1] (setting [3]), 3 µM in the experiment with NCI-H460 cells [1] (setting [8]), 3 µM with NCI-H460 cells [2] (setting [5]) and 0.1 µM in the experiment with NCI-H460 cells [2] (setting [6]).
With `C[C@H](CCl)NP(=O)(N[C@H](C)CCl)OCc1ccc(OCc2cnc([N+](=O)[O-])n2C)c(F)c1` [Compound 51], the IC50 came to 7 µM in the experiment on NCI-H460 cells [1] (setting [3]), 7 µM in the experiment with NCI-H460 cells [1] (setting [7]), 7 µM in the experiment on NCI-H460 cells [2] (setting [5]) and 3 µM with NCI-H460 cells [2] (setting [6]).
Take `C[C@H](CCl)NP(=O)(N[C@H](C)CCl)OCc1ccc(-c2ccc([N+](=O)[O-])s2)cc1` [Compound 52]: the IC50 in the experiment with NCI-H460 cells [1] (setting [3]) is 10 µM; with NCI-H460 cells [1] (setting [7]) it was 20 µM; in the experiment with NCI-H460 cells [2] (setting [5]), 20 µM; in the experiment with NCI-H460 cells [2] (setting [6]) it was 15 µM.
In the case of `O=[N+]([O-])c1ccc(-c2ccc(COP(=O)(NCCBr)NCCBr)cc2)s1` [Compound 53], the half-inhibitory concentration (IC50) in the experiment on NCI-H460 cells [1] (setting [3]) was 5 µM; in the experiment on NCI-H460 cells [1] (setting [8]), 10 µM; with NCI-H460 cells [2] (setting [5]), 10 µM; in the experiment with NCI-H460 cells [2] (setting [6]), 3 µM.
Turning to `COc1cc(COP(=O)(N[C@H](C)CCl)N[C@H](C)CCl)ccc1OCc1cnc([N+](=O)[O-])n1C` [Compound 54], the IC50 stood at 30 µM in the experiment on NCI-H460 cells [1] (setting [3]); 60 µM in the experiment with NCI-H460 cells [1] (setting [7]); 1 µM with NCI-H460 cells [1] (setting [4]); 60 µM in the experiment with NCI-H460 cells [2] (setting [5]); 1 µM in the experiment with NCI-H460 cells [2] (setting [6]).
Consider `O=[N+]([O-])c1ccc(-c2ccc(COP(=O)(NCCBr)NCCBr)cc2)o1` [Compound 55], for which the IC50 in the experiment with NCI-H460 cells [1] (setting [3]) was determined as 8 µM; in the experiment with NCI-H460 cells [1] (setting [8]) it was 12 µM; in the experiment with NCI-H460 cells [1] (setting [9]), 5 µM; in the experiment with NCI-H460 cells [2] (setting [5]) it was 12 µM; in the experiment with NCI-H460 cells [2] (setting [6]) it was 5 µM.
Take `COc1cc(COP(=O)(NCCBr)NCCBr)ccc1OCc1cnc([N+](=O)[O-])n1C` [Compound 56]: the IC50 in the experiment with NCI-H460 cells [1] (setting [3]) was found to be 8 µM; with NCI-H460 cells [1] (setting [8]), 10 µM; with NCI-H460 cells [1] (setting [9]) it was 0.5 µM; with NCI-H460 cells [2] (setting [5]), 10 µM; in the experiment with NCI-H460 cells [2] (setting [6]) it was 0.5 µM.
Take `CC(OP(=O)(NCCBr)NCCBr)c1ccc(OCc2cnc([N+](=O)[O-])n2C)c([N+](=O)[O-])c1` (stereo not drawn) [Compound 61]: the concentration for half-maximal inhibition (IC50) was found to be 4 µM in the experiment with NCI-H460 cells [1] (Air; read-out: IC50 in H460 cells, Air); 0.3 µM in the experiment on NCI-H460 cells [1] (N2; read-out: IC50 in H460 cells, N2); 4 µM in the experiment with NCI-H460 cells [1] (read-out: IC50 in H460 cells, 0.6% O2); 4 µM in the experiment with NCI-H460 cells [2] (read-out: IC50 H460 Air, air, 2 h exposure); 0.3 µM in the experiment on NCI-H460 cells [2] (read-out: IC50 H460 Anoxia, anoxia, 2 h exposure).
Take `CCN(CCOP(=O)(NCCBr)NCCBr)C(=O)OCc1cnc([N+](=O)[O-])n1C` [Compound 62]: the IC50 with NCI-H460 cells [1] (setting [3]) was 30 µM; in the experiment with NCI-H460 cells [1] (setting [8]), 45 µM; with NCI-H460 cells [1] (setting [9]), 2 µM; in the experiment with NCI-H460 cells [2] (setting [5]), 45 µM; with NCI-H460 cells [2] (setting [6]) it was 2 µM.
Regarding `O=[N+]([O-])c1cnc(-c2ccc(COP(=O)(NCCBr)NCCBr)cc2)s1` [Compound 63], the IC50 came out at 15 µM in the experiment on NCI-H460 cells [1] (setting [3]); 8 µM in the experiment with NCI-H460 cells [1] (setting [8]); 1 µM with NCI-H460 cells [1] (setting [9]); 8 µM in the experiment with NCI-H460 cells [2] (setting [5]); 1 µM with NCI-H460 cells [2] (setting [6]).

Usually IC50 stands for the midpoint of a concentration-inhibition curve.
